Measured values from patent US10562912B2 (C&C Research Laboratories, priority 2013, dated 2020).

How the values were obtained:
Format in all cases: cell-based
[1] = target: T1, STAT3 (Homo sapiens, UniProt P40763); assay: STAT3 reporter gene assay (luciferase), LNCaP stable cell line (pSTAT3-TA-luc), IL-6 stimulation
T1 construct: plasmid pSTAT3-TA-luc), which contains a stably operating STAT3 promoter; endogenous in cells
Outline: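 Cytotoxicity was run on a duplicate plate with CellTiter-Glo, while the other plate gave luciferase read-outs from lysed LNCaP pSTAT3-TA-luc reporter cells. Cells were treated with graded compound concentrations plus IL-6 (10 ng/mL final) for 24–48 h in 3% DCC-FBS medium. Unstimulated and stimulated wells served as negative and positive controls.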

[2] = system: LNCaP; assay: Cell growth inhibition assay, prostate cancer cell line LNCaP (medium with 10 ng/mL IL-6); conditions: Homo sapiens, medium supplemented with 10 ng/mL of IL-6, 10,000 cells/well
[3] = system: MDA-MB-231; assay: Cell growth inhibition assay, breast cancer cell line MDA-MB-231; conditions: Homo sapiens; MDA-MB-231 breast cancer cell line, 5,000 cells/well
[4] = system: HEL92.1.7; assay: Cell growth inhibition assay, blood cancer cell line HEL92.1.7; conditions: Homo sapiens, HEL 92.1.7, HEL92.1.7 blood cancer cell line
Outline: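 Cells were seeded at 3,000/well (HCT116, DU-145) or 5,000/well (SW626 and the others) and exposed to serial compound dilutions for 72 to 96 h at 37 °C under 5% CO2. Viability was read as CellTiter-Glo luminescence against 0.1% DMSO and cell-free wells.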

[5] = system: DU-145; assay: Cell growth inhibition assay, prostate cancer cell line DU-145; conditions: Homo sapiens, DU-145 prostate cancer cell line
Outline: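 Readout was CellTiter-Glo luminescence after 72–96 h of compound exposure at 37 °C, 5% CO2. Plating density was 3,000 cells/well for DU-145 and HCT116 and 5,000 cells/well for SW626. Controls were 0.1% DMSO wells and medium-only wells.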

T1 sequence (P40763 whole entry): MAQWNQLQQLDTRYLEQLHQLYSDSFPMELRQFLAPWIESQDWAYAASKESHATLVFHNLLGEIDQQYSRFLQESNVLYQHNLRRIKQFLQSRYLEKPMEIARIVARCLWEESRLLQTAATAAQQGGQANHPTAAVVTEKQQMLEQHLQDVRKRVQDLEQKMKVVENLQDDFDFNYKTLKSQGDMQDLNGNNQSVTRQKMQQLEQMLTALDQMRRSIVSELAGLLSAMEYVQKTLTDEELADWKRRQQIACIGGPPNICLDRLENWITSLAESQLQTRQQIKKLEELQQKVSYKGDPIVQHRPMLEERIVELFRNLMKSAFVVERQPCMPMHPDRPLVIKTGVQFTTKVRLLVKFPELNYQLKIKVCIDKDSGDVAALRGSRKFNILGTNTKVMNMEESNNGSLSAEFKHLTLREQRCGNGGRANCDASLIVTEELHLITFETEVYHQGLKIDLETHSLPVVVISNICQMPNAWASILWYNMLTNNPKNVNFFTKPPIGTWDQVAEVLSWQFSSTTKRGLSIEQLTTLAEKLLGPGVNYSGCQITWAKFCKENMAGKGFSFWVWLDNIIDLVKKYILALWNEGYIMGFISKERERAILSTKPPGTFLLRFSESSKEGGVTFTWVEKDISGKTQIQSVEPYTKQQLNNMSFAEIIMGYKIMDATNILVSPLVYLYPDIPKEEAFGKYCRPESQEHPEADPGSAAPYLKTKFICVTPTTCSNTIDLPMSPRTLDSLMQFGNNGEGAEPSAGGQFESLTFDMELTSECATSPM

IC50 [1] | IC50 [2] | IC50 [3] | IC50 [4] | IC50 [5] | Structure (SMILES)
0.051 µM | 0.095 µM | – | 0.05 µM | 0.017 µM | CC(C)Oc1cc(OC(F)(F)F)cc(C(C)(C)c2cc(Cl)cc(NC(=O)c3cc4cc(NS(=O)(=O)C5CCOC5)ccc4s3)c2)c1 (centres unmarked) [Example 204, N-(3-chloro-5-(2-(3-isopropoxy-5-(trifluoromethoxy)phenyl)propan-2-yl)phenyl)-5-((tetrahydrofuran)-3-sulfonamido)benzo[b]thiophene-2-carboxamide]
2.06 µM | > 1.1 µM | – | > 1.1 µM | 0.58 µM | CC(C)Oc1cc(OC(F)(F)F)cc(C(C)(C)c2cc(Cl)cc(NC(=O)c3cc4cc(N(CCN5CCOCC5)S(C)(=O)=O)c(F)cc4s3)c2)c1 [Example 217, N-(3-chloro-5-(2-(3-isopropoxy-5-(trifluoromethoxy)phenyl)propan-2-yl)phenyl)-6-fluoro-5-(N-(2-morpholinoethyl)methylsulfonamido)benzo[b]thiophene-2-carboxamide]
0.24 µM | 0.16 µM | – | 0.39 µM | 0.15 µM | COc1cc(OC(F)(F)F)cc(-c2cc(Cl)cc(NC(=O)c3cc4cc(NS(C)(=O)=O)c(F)cc4s3)c2)c1 [Example 325, N-(5-chloro-3′-methoxy-5′-(trifluoromethoxy)-[1,1′-biphenyl]-3-yl)-6-fluoro-5-(methylsulfonamido)benzo[b]thiophene-2-carboxamide]
0.069 µM | 0.28 µM | – | 0.3 µM | 0.19 µM | CC(C)Oc1cc(OC(F)(F)F)cc(C(C)(C)c2cc(Cl)cc(NC(=O)c3cc4cc(NS(=O)(=O)c5ccn(C)n5)ccc4s3)c2)c1 [Example 200, N-(3-chloro-5-(2-(3-isopropoxy-5-(trifluoromethoxy)phenyl)propan-2-yl)phenyl)-5-((1-methyl-1H-pyrazole)-3-sulfonamido)benzo[b]thiophene-2-carboxamide]
0.07 µM | 0.05 µM | – | 0.14 µM | 0.03 µM | COc1cc(OC(F)(F)F)cc(C(C)(C)c2cc(NC(=O)c3cc4cc(NS(C)(=O)=O)ccc4s3)cc(Cl)n2)c1 [Example 149, N-(2-chloro-6-(2-(3-methoxy-5-(trifluoromethoxy)phenyl)propan-2-yl)pyridin-4-yl)-5-(methylsulfonamido)benzo[b]thiophene-2-carboxamide]
0.067 µM | 0.037 µM | – | 0.11 µM | 0.042 µM | COc1cc(F)cc(C(C)(C)c2cc(Cl)cc(NC(=O)c3cc4cc(NS(C)(=O)=O)ccc4s3)c2)c1 [Example 67, N-(3-chloro-5-(2-(3-fluoro-5-methoxyphenyl)propan-2-yl)phenyl)-5-(methylsulfonamido)benzo[b]thiophene-2-carboxamide]
0.13 µM | 0.33 µM | – | 0.33 µM | 0.09 µM | CC(C)Oc1cc(-c2ccnn2C)cc(C(C)(C)c2cc(Cl)cc(NC(=O)c3cc4cc(NS(C)(=O)=O)ccc4s3)c2)c1 [Example 142, N-(3-chloro-5-(2-(3-isopropoxy-5-(1-methyl-1H-pyrazol-5-yl)phenyl)propan-2-yl)phenyl)-5-(methylsulfonamido)benzo[b]thiophene-2-carboxamide]
2.2 µM | 0.36 µM | – | 4.7 µM | > 1.1 µM | CC(C)Oc1cc(OC(F)(F)F)cc(C(C)(C)c2cc(Cl)cc(NC(=O)c3cc4nc(NS(C)(=O)=O)cnc4s3)c2)c1 [Example 151, N-(3-chloro-5-(2-(3-isopropoxy-5-(trifluoromethoxy)phenyl)propan-2-yl)phenyl)-2-(methylsulfonamido)thieno[2,3-b]pyrazine-6-carboxamide]
0.032 µM | 0.056 µM | – | 0.078 µM | 0.012 µM | CC(C)Oc1cc(Br)cc(C(C)(C)c2cc(Cl)cc(NC(=O)c3cc4cc(NS(C)(=O)=O)ccc4s3)c2)c1 [Example 91, N-(3-(2-(3-bromo-5-isopropoxyphenyl)propan-2-yl)-5-chlorophenyl)-5-(methylsulfonamido)benzo[b]thiophene-2-carboxamide]
1.12 µM | 0.27 µM | – | 0.35 µM | 0.2 µM | CN(C)CCOc1cc(OC(F)(F)F)cc(C(C)(C)c2cc(Cl)cc(NC(=O)c3cc4cc(NS(C)(=O)=O)ccc4s3)c2)c1 [Example 94, N-(3-chloro-5-(2-(3-(2-(dimethylamino)ethoxy)-5-(trifluoromethoxy)phenyl)propan-2-yl)phenyl)-5-(methylsulfonamido)benzo[b]thiophene-2-carboxamide]
0.016 µM | 0.028 µM | – | 0.091 µM | 0.009 µM | CC(C)(c1cc(Br)cc(NC(=O)c2cc3cc(NS(C)(=O)=O)ccc3s2)c1)c1cc(OC(F)(F)F)cc(OC(F)(F)C(F)F)c1 [Example 87, N-(3-bromo-5-(2-(3-(1,1,2,2-tetrafluoroethoxy)-5-(trifluoromethoxy)phenyl)propan-2-yl)phenyl)-5-(methylsulfonamido)benzo[b]thiophene-2-carboxamide]
0.091 µM | 0.055 µM | – | 0.12 µM | 0.021 µM | CC(C)Oc1cc(OC(F)(F)F)cc(C(C)(C)c2cc(Cl)cc(NC(=O)c3cc4c(F)c(NS(C)(=O)=O)ccc4s3)c2)c1 [Example 93, N-(3-chloro-5-(2-(3-isopropoxy-5-(trifluoromethoxy)phenyl)propan-2-yl)phenyl)-4-fluoro-5-(methylsulfonamido)benzo[b]thiophene-2-carboxamide]
0.014 µM | 0.016 µM | – | 0.031 µM | 0.008 µM | COc1cc(OC(F)(F)F)cc(C(C)(C)c2cc(Cl)cc(NC(=O)c3cc4cc(NS(C)(=O)=O)ccc4s3)n2)c1 [Example 150, N-(4-chloro-6-(2-(3-methoxy-5-(trifluoromethoxy)phenyl)propan-2-yl)pyridin-2-yl)-5-(methylsulfonamido)benzo[b]thiophene-2-carboxamide]

Second part, the compound before the results:

Structure (SMILES) | IC50 [1] | IC50 [2] | IC50 [3] | IC50 [4] | IC50 [5]
CN(c1ccc2cc(C(=O)Nc3cccc(-c4ccc(F)cc4F)c3)[nH]c2c1)S(C)(=O)=O [Example 344, N-(2′,4′-difluoro-[1,1′-biphenyl]-3-yl)-6-(N-methylmethylsulfonamido)-1H-indole-2-carboxamide] | 0.15 µM | 0.014 µM | 0.1 µM | 0.49 µM | –
CS(=O)(=O)Nc1ccc2cc(C(=O)Nc3cccc(-c4ccc(F)cc4F)c3)[nH]c2c1 [Example 270, N-(2′,4′-difluoro-[1,1′-biphenyl]-3-yl)-6-(methylsulfonamido)-1H-indole-2-carboxamide] | 0.38 µM | 1.01 µM | 0.7 µM | 1.7 µM | –
CS(=O)(=O)Nc1ccc2sc(C(=O)Nc3cc(Br)cc(-c4ccc(F)cc4F)c3)cc2c1 [Example 305, N-(5-bromo-2′,4′-difluoro-[1,1′-biphenyl]-3-yl)-5-(methylsulfonamido)benzo[b]thiophene-2-carboxamide] | 0.067 µM | 0.072 µM | 0.001 µM | 0.24 µM | 0.03 µM
Cn1cccc1C(C)(C)c1cc(Cl)cc(NC(=O)c2cc3cc(NS(C)(=O)=O)ccc3s2)c1 [Example 169, N-(3-chloro-5-(2-(1-methyl-1H-pyrrol-2-yl)propan-2-yl)phenyl)-5-(methylsulfonamido)benzo[b]thiophene-2-carboxamide] | 0.039 µM | 0.073 µM | – | 0.09 µM | 0.021 µM
CS(=O)(=O)Nc1ccc2sc(C(=O)Nc3cc(Br)cc(S(=O)(=O)N4CCC(F)(F)CC4)c3)cc2c1 [Example 420, N-(3-bromo-5-((4,4-difluoropiperidin-1-yl)sulfonyl)phenyl)-5-(methylsulfonamido)benzo[b]thiophene-2-carboxamide] | 0.82 µM | 1.7 µM | – | 2.4 µM | 0.95 µM
CN(c1cc(Cl)cc(NC(=O)c2cc3cc(NS(C)(=O)=O)ccc3s2)c1)c1ccc(F)cc1F [Example 439, N-(3-chloro-5-((2,4-difluorophenyl)(methyl)amino)phenyl)-5-(methylsulfonamido)benzo[b]thiophene-2-carboxamide] | 0.053 µM | 0.15 µM | – | 0.64 µM | 0.089 µM
COc1ccc(C(C)(C)c2cc(Cl)cc(NC(=O)c3cc4cc(NS(C)(=O)=O)ccc4s3)c2)c(OC)c1 [Example 154, N-(3-chloro-5-(2-(2,4-dimethoxyphenyl)propan-2-yl)phenyl)-5-(methylsulfonamido)benzo[b]thiophene-2-carboxamide] | 0.14 µM | 0.11 µM | – | 0.34 µM | 0.17 µM
CC(C)(c1ccc(Br)cc1)c1cc(Cl)cc(NC(=O)c2cc3cc(NS(C)(=O)=O)ccc3s2)c1 [Example 152, N-(3-(2-(4-bromophenyl)propan-2-yl)-5-chlorophenyl)-5-(methylsulfonamido)benzo[b]thiophene-2-carboxamide] | 0.12 µM | 0.059 µM | – | 0.21 µM | 0.047 µM
CC(C)(c1ccccc1)c1cc(Cl)cc(NC(=O)c2cc3cc(NS(C)(=O)=O)ccc3s2)c1 [Example 64, N-(3-chloro-5-(2-phenylpropan-2-yl)phenyl)-5-(methylsulfonamido)benzo[b]thiophene-2-carboxamide] | 0.065 µM | 0.1 µM | – | 0.11 µM | 0.043 µM
